Results published in patent publication US20250160366A1, “MEANS AND METHODS FOR MODULATING SECONDARY METABOLITE IN AN ANIMAL” (DSM IP Assets B.V., priority 2022, published 2025).

Tests used:
[1] = OP at 1000 mg/kg feed, positive control 30 g GABA per ton of feed
[2] = in mice; cited from earlier work
[3] = GABA supplementation at 30 g/MT; Li et al. 2015, Bi et al. 2020; cited from earlier work

NCCCC(=O)O [GABA, Gamma-aminobutyric acid]
fold change (compared to day 0) of plasma COR as stress indicator [1]: 0.70
fold change (compared to day 0) of plasma NPY as stress-resistance indicator [1]: 0.51
plasma GABA fold change compared to day 0 ([1]; day 12): 1.07
half-life of GABA in the body [2]: less than 17 min
biting incidences [3]: lower
growth performance [3]: increase
stress-related parameters [3]: improve
